Data as given in ChEMBL document CHEMBL3639029, “Pyrrolopyrimidine compounds as inhibitors of CDK4/6” (2015).
pIC50: −log10 of the molar value.

Legend:
[1] = target: Cyclin-dependent kinase 1 (Homo sapiens, UniProt P06493); assay: IMAP-FP (Molecular Devices Trade Mark Technology) Endpoint Assay: A 384-well microtiter IMAP-FP (Molecular Devices Trade Mark Technology) endpoint assay was used for CDK1/cyclin B kinase activity measurements. The same assay was used for IC50 determination of small molecule inhibitors. In general, the kinase reactions were carried out in 20 uL volumes in the reaction solution, which is composed of 2 uL compound (in 20% DMSO), 8 uL CDK1/cyclin B in the 1x Reaction Buffer (Molecular Devices, Cat. No. R8139), 10 uL substrate mixture of Tamra Histone-H1 peptide (Molecular Devices, Cat. No. R7384) and ATP (Amersham Pharmacia, Cat. No. 27-2056-01) in the 1x Reaction Buffer with 1 mM DTT freshly added. The final reaction mixture contains compound (inhibitor) with the concentration varying from 0.005-10 uM, 2% DMSO, 0.25 nM CDK1/cyclin B, 100 nM Tamra Histone-H1 peptide, and 20 uM ATP.All reactions were run at room temperature in black 384-well flat-bottom Costar plates (Corning, Cat. No. 3710) for 120 min then were quenched.
Chain of Cyclin-dependent kinase 1 (P06493 whole entry): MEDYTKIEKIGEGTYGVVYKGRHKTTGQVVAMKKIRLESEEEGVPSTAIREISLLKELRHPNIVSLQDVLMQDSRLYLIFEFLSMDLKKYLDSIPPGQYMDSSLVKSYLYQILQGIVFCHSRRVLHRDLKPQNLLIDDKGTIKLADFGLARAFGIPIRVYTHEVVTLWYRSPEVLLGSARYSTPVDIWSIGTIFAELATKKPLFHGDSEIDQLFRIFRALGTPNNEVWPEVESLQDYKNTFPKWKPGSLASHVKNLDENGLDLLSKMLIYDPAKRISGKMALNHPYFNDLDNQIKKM

[2] = target: Cyclin-dependent kinase 4 (Homo sapiens, UniProt P11802); assay: Biological Assay: An assay for monitoring CDK4/cyclin D1-catalyzed phosphorylation of pRb at the Ser780 site was performed using TR-FRET in a 384-well format, and was used for IC50 determination and kinetic analysis. The reaction was carried out in a 30 uL volume containing 0.3 nM CDK4/cyclin D1, 150 nM biotin-pRb (773-924), 3 uM ATP, and 1.3% DMSO (or compound in DMSO) in the assay buffer (50 mM HEPES-Na, pH 7.5; 5 mM MgCl2, 1 mM DTT, 0.02% Tween-20, and 0.05% BSA). 3 uM ATP was added last to initiate the reaction. The reaction was quenched with 10 uL of 240 mM EDTA-Na (pH 8.0) after 60 min incubation at 22 C. The signal was developed by the addition of 40 uL detection solution containing 40 nM SA-APC, 143 ng/mL anti-phospho-pRb (S780) antibody, and 1 nM Eu-W1024 anti-rabbit IgG antibody in the detection buffer (50 mM HEPES-Na, pH 7.5, 60 mM EDTA-Na, pH 8.0, 0.05% BSA, and 0.1% Triton X-100). After 60 min incubation in the dark, the plate was read on Envision.
Chain of Cyclin-dependent kinase 4 (P11802 whole entry): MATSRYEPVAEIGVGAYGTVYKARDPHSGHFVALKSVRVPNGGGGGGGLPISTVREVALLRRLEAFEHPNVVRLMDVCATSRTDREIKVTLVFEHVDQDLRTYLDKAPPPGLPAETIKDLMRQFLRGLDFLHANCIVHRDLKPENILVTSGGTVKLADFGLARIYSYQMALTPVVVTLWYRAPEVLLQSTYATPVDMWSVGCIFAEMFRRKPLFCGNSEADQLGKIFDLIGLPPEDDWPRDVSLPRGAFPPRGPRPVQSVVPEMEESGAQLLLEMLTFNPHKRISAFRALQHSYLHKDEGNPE

## CN(C)C(=O)c1cc2cnc(Nc3ccc(N4CC5CCC(CC4=O)N5)cn3)nc2n1-c1ccc(C(C)(C)C#N)cc1 (configuration not stated)
[1]
  pIC50: < 4.82
[2]
  pIC50: 8.30
